Data: US4211772A, “Benzopyran glycoside acetals and ketals” (Laboratoires Sarget, priority 1977, dated 1980)
Converted amounts (≈) assume the structure as drawn. Like-named read-outs stand apart in the source and are kept apart here.

How the values were obtained:
[1] = Solubilities in water; assay type: physicochemical; settings: water; read-out: Solubilities in water
[2] = molecular target: T1, Aldose Reductase (Bos taurus, UniProt P16116); assay: Inhibition of aldose reductase in vitro (enzyme from beef eye lenses, glyceraldehyde substrate); assay type: biochemical; settings: in DMF solution, read-out: percentages of inhibition (aldose reductase)
T1 construct: The enzyme is extracted from beef eye lenses; from tissue; host or cells: beef eye lenses
Text: Inhibition of Aldose Reductase In Vitro
The reoxidation of NADPH coupled to the enzymatic reaction was followed spectrophotometrically at 340 nm.

[3] = system: carragenin edema; assay: Anti-inflammatory activity: carragenin edema test; assay type: in vivo; settings: for % inhibition of carragenin edema: borate buffer pH 7, 24 h; for inhibition in vivo at 75 mg/kg / inhibition in vivo at 100 mg/kg / inhibition in vivo at 150 mg/kg / inhibition in vivo at 200 mg/kg: Rattus norvegicus, ip
Procedure, shortened: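 Male Wistar EOPS rats receive 0.1 ml of 5% carragenin suspension in physiological serum into the hind-paw metatarsal muscle, with test substance given i.p. in neutralized solution at the same time. Paw edema is measured by plethysmometry at several times after carragenin and reported as % inhibition against pH-matched physiological serum controls.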

[4] = system: capillary resistance; assay: Capillaroprotecting effects: capillary resistance; assay type: in vivo, male OFA EOPS rats
Protocol: (§1) Capillaroprotecting effects
The capillary resistance was determined by a variant of the method of Charlier et al, Arch. Inter. Physiol.

[5] = system: capillary permeability; assay: Capillaroprotecting effects: capillary permeability; assay type: in vivo, conventional male Wistar rats
Protocol: as §1
The capillary permeability was determined by the method of Charlier et al, Arch. Inter. Physiol.

[6] = system: OF1 EOPS mice; assay: Acute i.p. toxicity in OF1 EOPS mice; assay type: in vivo; settings: neutralized borate buffer, over 7 days
Protocol: The acute toxicity of the compounds of the present invention was determined in mice.

C[C@@H]1O[C@@H](Oc2c(-c3ccc(O)c(O)c3)oc3cc(O)cc(O)c3c2=O)[C@@H]2OC(C)(C)O[C@@H]2[C@H]1O [No. 3, 3-O-(2,3-O,O-isopropylidene-α-L-rhamnosyl)-quercetin]
solubility [1]: 1600 µg/mL (≈ 3.28 mM) | inhibition at 100 µM ([2]; 10^-4 mole/l): 100% | inhibition at 10 µM ([2]; 10^-5 mole/l): 92% | inhibition at 1 µM ([2]; 10^-6 mole/l): 80% | inhibition at 0.1 µM ([2]; 10^-7 mole/l): 40% | % inhibition of carragenin edema ([3]; 75 mg/kg i.p.): 21% | % inhibition of carragenin edema ([3]; 100 mg/kg i.p.): 17% | % inhibition of carragenin edema ([3]; 150 mg/kg i.p.): 11% | % inhibition of carragenin edema ([3]; 200 mg/kg i.p.): 0% | inhibition in vivo at 75 mg/kg ([3]; 1 h, pH 7, read-out: % inhibition of carragenin edema, 75 mg/kg i.p., borate buffer pH 7, 1 h): 0% | inhibition in vivo at 75 mg/kg ([3]; 1 h, pH 7, read-out: % inhibition of carragenin edema, 75 mg/kg i.p., borate buffer pH 7, 1 h 1/2): 0% | inhibition in vivo at 100 mg/kg ([3]; 1 h, pH 7, read-out: % inhibition of carragenin edema, 100 mg/kg i.p., borate buffer pH 7, 1 h): 55% | inhibition in vivo at 100 mg/kg ([3]; 1 h, pH 7, read-out: % inhibition of carragenin edema, 100 mg/kg i.p., borate buffer pH 7, 1 h 1/2): 41% | inhibition in vivo at 150 mg/kg ([3]; 1 h, pH 7, read-out: % inhibition of carragenin edema, 150 mg/kg i.p., borate buffer pH 7, 1 h): 0% | inhibition in vivo at 150 mg/kg ([3]; 1 h, pH 7, read-out: % inhibition of carragenin edema, 150 mg/kg i.p., borate buffer pH 7, 1 h 1/2): 0% | inhibition in vivo at 200 mg/kg ([3]; 1 h, pH 7, read-out: % inhibition of carragenin edema, 200 mg/kg i.p., borate buffer pH 7, 1 h): 45% | inhibition in vivo at 200 mg/kg ([3]; 1 h, pH 7, read-out: % inhibition of carragenin edema, 200 mg/kg i.p., borate buffer pH 7, 1 h 1/2): 12% | inhibition in vivo at 75 mg/kg ([3]; 2 h, pH 7, read-out: % inhibition of carragenin edema, 75 mg/kg i.p., borate buffer pH 7, 2 h): 10% | inhibition in vivo at 100 mg/kg ([3]; 2 h, pH 7, read-out: % inhibition of carragenin edema, 100 mg/kg i.p., borate buffer pH 7, 2 h): 30% | inhibition in vivo at 150 mg/kg ([3]; 2 h, pH 7, read-out: % inhibition of carragenin edema, 150 mg/kg i.p., borate buffer pH 7, 2 h): 20% | inhibition in vivo at 200 mg/kg ([3]; 2 h, pH 7, read-out: % inhibition of carragenin edema, 200 mg/kg i.p., borate buffer pH 7, 2 h): 0% | inhibition in vivo at 75 mg/kg ([3]; 3 h, pH 7, read-out: % inhibition of carragenin edema, 75 mg/kg i.p., borate buffer pH 7, 3 h): 6% | inhibition in vivo at 100 mg/kg ([3]; 3 h, pH 7, read-out: % inhibition of carragenin edema, 100 mg/kg i.p., borate buffer pH 7, 3 h): 19% | inhibition in vivo at 150 mg/kg ([3]; 3 h, pH 7, read-out: % inhibition of carragenin edema, 150 mg/kg i.p., borate buffer pH 7, 3 h): 0% | inhibition in vivo at 200 mg/kg ([3]; 3 h, pH 7, read-out: % inhibition of carragenin edema, 200 mg/kg i.p., borate buffer pH 7, 3 h): 0% | inhibition in vivo at 75 mg/kg ([3]; 4 h, pH 7, read-out: % inhibition of carragenin edema, 75 mg/kg i.p., borate buffer pH 7, 4 h): 3% | inhibition in vivo at 100 mg/kg ([3]; 4 h, pH 7, read-out: % inhibition of carragenin edema, 100 mg/kg i.p., borate buffer pH 7, 4 h): 18% | inhibition in vivo at 150 mg/kg ([3]; 4 h, pH 7, read-out: % inhibition of carragenin edema, 150 mg/kg i.p., borate buffer pH 7, 4 h): 2% | inhibition in vivo at 200 mg/kg ([3]; 4 h, pH 7, read-out: % inhibition of carragenin edema, 200 mg/kg i.p., borate buffer pH 7, 4 h): 0% | inhibition in vivo at 75 mg/kg ([3]; 5 h, pH 7, read-out: % inhibition of carragenin edema, 75 mg/kg i.p., borate buffer pH 7, 5 h): 6% | inhibition in vivo at 100 mg/kg ([3]; 5 h, pH 7, read-out: % inhibition of carragenin edema, 100 mg/kg i.p., borate buffer pH 7, 5 h): 19% | inhibition in vivo at 150 mg/kg ([3]; 5 h, pH 7, read-out: % inhibition of carragenin edema, 150 mg/kg i.p., borate buffer pH 7, 5 h): 3% | inhibition in vivo at 200 mg/kg ([3]; 5 h, pH 7, read-out: % inhibition of carragenin edema, 200 mg/kg i.p., borate buffer pH 7, 5 h): 2% | inhibition in vivo at 75 mg/kg ([3]; 6 h, pH 7, read-out: % inhibition of carragenin edema, 75 mg/kg i.p., borate buffer pH 7, 6 h): 10% | inhibition in vivo at 100 mg/kg ([3]; 6 h, pH 7, read-out: % inhibition of carragenin edema, 100 mg/kg i.p., borate buffer pH 7, 6 h): 18% | inhibition in vivo at 150 mg/kg ([3]; 6 h, pH 7, read-out: % inhibition of carragenin edema, 150 mg/kg i.p., borate buffer pH 7, 6 h): 8% | inhibition in vivo at 200 mg/kg ([3]; 6 h, pH 7, read-out: % inhibition of carragenin edema, 200 mg/kg i.p., borate buffer pH 7, 6 h): 1% | inhibition in vivo at 75 mg/kg ([3]; read-out: % inhibition of carragenin edema, 75 mg/kg i.p., borate buffer pH 7, 1/2 h): 26% | inhibition in vivo at 100 mg/kg ([3]; read-out: % inhibition of carragenin edema, 100 mg/kg i.p., borate buffer pH 7, 1/2 h): 45% | inhibition in vivo at 150 mg/kg ([3]; read-out: % inhibition of carragenin edema, 150 mg/kg i.p., borate buffer pH 7, 1/2 h): 26% | inhibition in vivo at 200 mg/kg ([3]; read-out: % inhibition of carragenin edema, 200 mg/kg i.p., borate buffer pH 7, 1/2 h): 40% | % of animals for which the effect is ≥ 25 u cm Hg/h ([4]; 50 mg/kg i.p.): 40% | capillary resistance, effect observed ([4]; 50 mg/kg i.p.): 19.5 ± 7.4 u cm Hg/h | % of animals for which the effect is ≥ 25 u cm Hg/h ([4]; 100 mg/kg i.p.): 80% | capillary resistance, effect observed ([4]; 100 mg/kg i.p.): 34.75 ± 11.1 u cm Hg/h | % of animals for which the effect is ≥ 25 u cm Hg/h ([4]; 200 mg/kg i.p.): 100% | capillary resistance, effect observed ([4]; 200 mg/kg i.p.): 56 ± 11.3 u cm Hg/h | percentage reduction of capillary permeability ([5]; 50 mg/kg i.p.): 21% | percentage reduction of capillary permeability ([5]; 100 mg/kg i.p.): 25% | percentage reduction of capillary permeability ([5]; 200 mg/kg i.p.): 59% | dose until which no mortality resulted [6]: 400 mg/kg
